How the values were obtained:
Assay in all cases: relative viability (nuclei count vs DMSO), 5 days (fraction); higher = more cells survive
HARA = tested on: HARA
In short: (§1)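 Lung cancer cell lines, seeded in 1536-well plates, were treated the following day by pin tool with a single drug or with five library-drug doses (not always all listed) in √10 steps on top of a fixed anchor-drug dose. Cells were fixed and nuclei stained in one step after 5 days, and nuclei were counted. Relative viability is the nuclei count for treated wells divided by that for vehicle wells, reported as medians of duplicate plates.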

NCI-H596 = tested on: NCI-H596
In short: as §1

NCI-H1755 = tested on: NCI-H1755
In short: as §1

PC-3 [JPC-3] = tested on: PC-3 [JPC-3]
In short: as §1

NCI-H1793 = tested on: NCI-H1793
In short: as §1

NCI-H322M = tested on: NCI-H322M
In short: as §1

H3255 = tested on: H3255
In short: as §1

NCI-H2085 = tested on: NCI-H2085
In short: as §1

NCI-H1651 = tested on: NCI-H1651
In short: as §1

NCI-H2087 = tested on: NCI-H2087
In short: as §1

NCI-H1650 = tested on: NCI-H1650
In short: as §1

HCC-78 = tested on: HCC-78
In short: as §1

201T = tested on: 201T
In short: as §1

NCI-H3122 = tested on: NCI-H3122
In short: as §1

SK-LU-1 = tested on: SK-LU-1
In short: as §1

COR-L23 = tested on: COR-L23
In short: as §1

HCC-366 = tested on: HCC-366
In short: as §1

LU99A = tested on: LU99A
In short: as §1

NCI-H23 = tested on: NCI-H23
In short: as §1

NCI-H460 = tested on: NCI-H460
In short: as §1

SMILES: CN1CCN(CCOc2cc(OC3CCOCC3)c3c(Nc4c(Cl)ccc5c4OCO5)ncnc3c2)CC1 [Saracatinib] + CC1(C)CCC(c2ccc(Cl)cc2)=C(CN2CCN(c3ccc(C(=O)NS(=O)(=O)c4ccc(N[C@H](CCN5CCOCC5)CSc5ccccc5)c(S(=O)(=O)C(F)(F)F)c4)cc3)CC2)C1 [Navitoclax] (partner 0.5 µM)
- relative viability (HARA; first compound 0.02 µM): 1.2
- relative viability (HARA; first compound 0.6325 µM): 1.1
- relative viability (HARA; first compound 2 µM): 0.984
- relative viability (NCI-H596; first compound 0.02 µM): 0.952
- relative viability (NCI-H596; first compound 0.2 µM): 0.711
- relative viability (NCI-H596; first compound 0.6325 µM): 0.925
- relative viability (NCI-H596; first compound 2 µM): 0.682
- relative viability (NCI-H1755; first compound 0.02 µM): 0.981
- relative viability (NCI-H1755; first compound 0.2 µM): 0.681
- relative viability (NCI-H1755; first compound 0.6325 µM): 0.874
- relative viability (NCI-H1755; first compound 2 µM): 0.588
- relative viability (PC-3 [JPC-3]; first compound 0.02 µM): 0.806
- relative viability (PC-3 [JPC-3]; first compound 0.2 µM): 0.754
- relative viability (PC-3 [JPC-3]; first compound 0.6325 µM): 0.726
- relative viability (PC-3 [JPC-3]; first compound 2 µM): 0.508
- relative viability (NCI-H1793; first compound 0.02 µM): 0.456
- relative viability (NCI-H1793; first compound 0.2 µM): 0.402
- relative viability (NCI-H1793; first compound 0.6325 µM): 0.401
- relative viability (NCI-H1793; first compound 2 µM): 0.201
- relative viability (NCI-H322M; first compound 0.02 µM): 1.28
- relative viability (NCI-H322M; first compound 0.2 µM): 1.29
- relative viability (NCI-H322M; first compound 0.6325 µM): 1.31
- relative viability (NCI-H322M; first compound 2 µM): 1.13
- relative viability (H3255; first compound 0.02 µM): 0.515
- relative viability (H3255; first compound 0.2 µM): 0.393
- relative viability (H3255; first compound 0.6325 µM): 0.302
- relative viability (H3255; first compound 2 µM): 0.0997
- relative viability (NCI-H2085; first compound 0.02 µM): 1.12
- relative viability (NCI-H2085; first compound 0.2 µM): 1.05
- relative viability (NCI-H2085; first compound 0.6325 µM): 1.19
- relative viability (NCI-H2085; first compound 2 µM): 1.07
- relative viability (NCI-H1651; first compound 0.02 µM): 1.06
- relative viability (NCI-H1651; first compound 0.2 µM): 0.681
- relative viability (NCI-H1651; first compound 0.6325 µM): 0.998
- relative viability (NCI-H1651; first compound 2 µM): 1.03
- relative viability (NCI-H2087; first compound 0.02 µM): 1.03
- relative viability (NCI-H2087; first compound 0.2 µM): 1.04
- relative viability (NCI-H2087; first compound 0.6325 µM): 1.14
- relative viability (NCI-H2087; first compound 2 µM): 1.05
- relative viability (NCI-H1650; first compound 0.02 µM): 1.17
- relative viability (NCI-H1650; first compound 0.2 µM): 1.1
- relative viability (NCI-H1650; first compound 0.6325 µM): 0.983
- relative viability (NCI-H1650; first compound 2 µM): 0.981
- relative viability (HCC-78; first compound 0.02 µM): 0.733
- relative viability (HCC-78; first compound 0.2 µM): 0.779
- relative viability (HCC-78; first compound 0.6325 µM): 1.08
- relative viability (HCC-78; first compound 2 µM): 0.875
- relative viability (201T; first compound 0.02 µM): 1.29
- relative viability (201T; first compound 0.2 µM): 1.16
- relative viability (201T; first compound 0.6325 µM): 1.09
- relative viability (201T; first compound 2 µM): 1.1
- relative viability (NCI-H3122; first compound 0.02 µM): 1.02
- relative viability (NCI-H3122; first compound 0.6325 µM): 0.942
- relative viability (NCI-H3122; first compound 2 µM): 0.838
- relative viability (SK-LU-1; first compound 0.02 µM): 0.752
- relative viability (SK-LU-1; first compound 0.2 µM): 0.535
- relative viability (SK-LU-1; first compound 0.6325 µM): 0.527
- relative viability (SK-LU-1; first compound 2 µM): 0.412
- relative viability (COR-L23; first compound 0.02 µM): 1.1
- relative viability (COR-L23; first compound 0.2 µM): 0.966
- relative viability (COR-L23; first compound 0.6325 µM): 0.923
- relative viability (COR-L23; first compound 2 µM): 0.933
- relative viability (HCC-366; first compound 0.02 µM): 1.03
- relative viability (HCC-366; first compound 0.6325 µM): 1.08
- relative viability (HCC-366; first compound 2 µM): 0.7
- relative viability (LU99A; first compound 0.02 µM): 0.818
- relative viability (LU99A; first compound 0.2 µM): 0.629
- relative viability (LU99A; first compound 0.6325 µM): 0.847
- relative viability (LU99A; first compound 2 µM): 0.865
- relative viability (NCI-H23; first compound 0.02 µM): 0.815
- relative viability (NCI-H23; first compound 0.6325 µM): 0.847
- relative viability (NCI-H23; first compound 2 µM): 0.52
- relative viability (NCI-H460; first compound 0.02 µM): 1.16
- relative viability (NCI-H460; first compound 0.2 µM): 0.457
- relative viability (NCI-H460; first compound 0.6325 µM): 1.22
- relative viability (NCI-H460; first compound 2 µM): 0.813
